Data reported in patent US6737383B1, “Herbicidal oxadiazolidines” (priority 1999, dated 2004).

Assays:
goosegrass = experiment: Test D goosegrass; type: in vivo, Eleusine indica; conditions: Preemergence, 0 to 100 scale
How it was run: (§1)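 Greenhouse pots, seeds in sandy loam; compounds formulated in non-phytotoxic solvent with surfactant; preemergence treatments went on the soil surface within one day of planting. Injury rated visually 14 to 21 days after application on a 0 (none) to 100 (complete control) scale.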

surinam grass [1] = experiment: Test C postemergence surinam grass; type: in vivo, Brachiaria decumbens; conditions: 0 to 100 scale, 0 no effect, 100 complete control
How it was run: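 Compounds in a non-phytotoxic solvent with surfactant were sprayed postemergence on greenhouse-grown plants in 60:40 sandy loam/potting mix. After about 14 to 21 days, visual ratings against untreated controls on a 0 (no effect) to 100 (complete control) scale.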

common pursiane = experiment: Test D common purslane; type: in vivo, Portulaca oleracea
How it was run: as §1

guineagrass = experiment: Test D guineagrass; type: in vivo, Panicum maximum; conditions: Preemergence, 0 to 100 scale
How it was run: as §1

Green foxtail = experiment: Test D green foxtail; type: in vivo; conditions: Preemergence, 0 to 100 scale
How it was run: as §1

surinam grass [2] = experiment: Test D surinam grass; type: in vivo, Brachiaria decumbens; conditions: Preemergence, 0 to 100 scale
How it was run: as §1

dallisgrass = experiment: Test D dallisgrass; type: in vivo, Paspalum dilatatum; conditions: Preemergence, 0 to 100 scale
How it was run: as §1

common groundsel = experiment: Test D common groundsel; type: in vivo, Senecio vulgaris; conditions: Preemergence, 0 to 100 scale
How it was run: as §1

Alexandergrass = experiment: Test D Alexandergrass; type: in vivo, Brachiaria plantaginea; conditions: Preemergence, 0 to 100 scale
How it was run: as §1

sandbur = experiment: Test D sandbur; type: in vivo, Cenchrus echinatus; conditions: Preemergence, 0 to 100 scale
How it was run: as §1

tall mallow = experiment: Test D tall mallow; type: in vivo, Malva sylvestris; conditions: Preemergence, 0 to 100 scale
How it was run: as §1

large crabgrass = experiment: Test D large crabgrass; type: in vivo, Digitaria sanguinalis; conditions: Preemergence, 0 to 100 scale
How it was run: as §1

common ragweed = experiment: Test D common ragweed; type: in vivo, Ambrosia elatior; conditions: Preemergence, 0 to 100 scale
How it was run: as §1

purple nutsedge = experiment: Test D purple nutsedge; type: in vivo, Cyperus rotundus; conditions: Preemergence, 0 to 100 scale
How it was run: as §1

Johnson grass = experiment: Test D Johnson grass; type: in vivo, Sorghum halepense; conditions: Preemergence, 0 to 100 scale
How it was run: as §1

[3] = Rate 16 g/ha, 0 no injury, 100 complete control
[4] = Rate 32 g/ha, 0 no injury, 100 complete control
[5] = Rate 64 g/ha, 0 no injury, 100 complete control
[6] = Rate 125 g/ha, 0 no injury, 100 complete control
[7] = Rate 16 g/ha; Preemergence; 0 to 100 scale, 0 no injury, 100 complete control
[8] = Rate 32 g/ha; Preemergence; 0 to 100 scale, 0 no injury, 100 complete control
[9] = Rate 64 g/ha, Preemergence; 0 to 100 scale, 0 no injury, 100 complete control
[10] = Rate 125 g/ha, Preemergence; 0 to 100 scale, 0 no injury, 100 complete control
[11] = Rate 250 g/ha; Preemergence; 0 to 100 scale

Compound: C=CCn1c(=O)on(C(=O)N(c2ccccc2)C(C)C)c1=O [Compound 93]
- Plant response rating, Goosegrass (goosegrass; [3]): 65
- Plant response rating, Goosegrass (goosegrass; [4]): 98
- Plant response rating, Goosegrass (goosegrass; [5]): 98
- Plant response rating, Goosegrass (goosegrass; [6]): 100
- Plant response rating, Goosegrass (goosegrass; Rate 250 g/ha): 100
- Plant response rating, Goosegrass (goosegrass; Rate 500 g/ha): 100
- Plant response rating, Surinam grass (surinam grass [1]; Rate 140 g/ha): 0
- Plant response rating, Surinam grass (surinam grass [1]; Rate 280 g/ha): 45
- Plant response rating, Surinam grass (surinam grass [1]; Rate 560 g/ha): 50
- Plant response rating, Surinam grass (surinam grass [1]; Rate 1120 g/ha): 85
- Plant response rating, C. purslane (common pursiane; [7]): 0
- Plant response rating, C. purslane (common pursiane; [8]): 0
- Plant response rating, C. purslane (common pursiane; [9]): 0
- Plant response rating, C. purslane (common pursiane; [10]): 0
- Plant response rating, C. purslane (common pursiane; [11]): 0
- Plant response rating, C. purslane (common pursiane; Rate 500 g/ha, Preemergence; 0 to 100 scale): 80
- Plant response rating, C. purslane (common pursiane; Rate 500 g/ha; Preemergence; 0 to 100 scale): 0
- Plant response rating, Guineagrass (guineagrass; [3]): 65
- Plant response rating, Guineagrass (guineagrass; [4]): 75
- Plant response rating, Guineagrass (guineagrass; [5]): 100
- Plant response rating, Guineagrass (guineagrass; [6]): 100
- Plant response rating, Guineagrass (guineagrass; Rate 250 g/ha): 100
- Plant response rating, Guineagrass (guineagrass; Rate 500 g/ha): 100
- Plant response rating, Green foxtail (Green foxtail; Rate 250 g/ha): 100
- Plant response rating, Green foxtail (Green foxtail; Rate 500 g/ha): 100
- Plant response rating, Surinam grass (surinam grass [2]; [3]): 0
- Plant response rating, Surinam grass (surinam grass [2]; [4]): 0
- Surinam grass plant response rating (surinam grass [2]; [5]): 85
- Surinam grass plant response rating (surinam grass [2]; [6]): 90
- Plant response rating, Surinam grass (surinam grass [2]; Rate 250 g/ha): 98
- Plant response rating, Surinam grass (surinam grass [2]; Rate 500 g/ha): 100
- Plant response rating, Dallisgrass (dallisgrass; [3]): 60
- Plant response rating, Dallisgrass (dallisgrass; [4]): 98
- Plant response rating, Dallisgrass (dallisgrass; [5]): 98
- Plant response rating, Dallisgrass (dallisgrass; [6]): 98
- Plant response rating, Dallisgrass (dallisgrass; Rate 250 g/ha): 100
- Plant response rating, Dallisgrass (dallisgrass; Rate 500 g/ha): 100
- Plant response rating, Com. groundsel (common groundsel; [3]): 0
- Plant response rating, Com. groundsel (common groundsel; [4]): 0
- Plant response rating, Com. groundsel (common groundsel; [5]): 0
- Plant response rating, Com. groundsel (common groundsel; [6]): 35
- Plant response rating, Com. groundsel (common groundsel; Rate 250 g/ha): 0
- Plant response rating, Com. groundsel (common groundsel; Rate 500 g/ha): 100
- Plant response rating, Alexandergrass (Alexandergrass; [3]): 0
- Plant response rating, Alexandergrass (Alexandergrass; [4]): 10
- Plant response rating, Alexandergrass (Alexandergrass; [5]): 30
- Plant response rating, Alexandergrass (Alexandergrass; [6]): 85
- Plant response rating, Alexandergrass (Alexandergrass; Rate 250 g/ha): 100
- Plant response rating, Alexandergrass (Alexandergrass; Rate 500 g/ha): 100
- Plant response rating, Sandbur (sandbur; [3]): 0
- Plant response rating, Sandbur (sandbur; [4]): 0
- Sandbur plant response rating (sandbur; [5]): 65
- Sandbur plant response rating (sandbur; [6]): 65
- Plant response rating, Sandbur (sandbur; Rate 250 g/ha): 100
- Plant response rating, Sandbur (sandbur; Rate 500 g/ha): 100
- Plant response rating, Tall Mallow (tall mallow; [3]): 0
- Plant response rating, Tall Mallow (tall mallow; [4]): 0
- Tall Mallow plant response rating (tall mallow; [5]): 0
- Tall Mallow plant response rating (tall mallow; [6]): 30
- Plant response rating, Tall Mallow (tall mallow; Rate 250 g/ha): 90
- Plant response rating, Tall Mallow (tall mallow; Rate 500 g/ha): 98
- Plant response rating, Large crabgrass (large crabgrass; [3]): 90
- Plant response rating, Large crabgrass (large crabgrass; [4]): 98
- Plant response rating, Large crabgrass (large crabgrass; [5]): 98
- Plant response rating, Large crabgrass (large crabgrass; [6]): 100
- Plant response rating, Large crabgrass (large crabgrass; Rate 250 g/ha): 100
- Plant response rating, Large crabgrass (large crabgrass; Rate 500 g/ha): 100
- Plant response rating, C. ragweed (common ragweed; [3]): 0
- Plant response rating, C. ragweed (common ragweed; [4]): 0
- Plant response rating, C. ragweed (common ragweed; [5]): 0
- Plant response rating, C. ragweed (common ragweed; [6]): 10
- Plant response rating, C. ragweed (common ragweed; Rate 250 g/ha): 0
- Plant response rating, C. ragweed (common ragweed; Rate 500 g/ha): 80
- Plant response rating, Purple nutsedge (purple nutsedge; [3]): 0
- Plant response rating, Purple nutsedge (purple nutsedge; [4]): 0
- Purple nutsedge plant response rating (purple nutsedge; [5]): 20
- Purple nutsedge plant response rating (purple nutsedge; [6]): 0
- Plant response rating, Purple nutsedge (purple nutsedge; Rate 250 g/ha): 30
- Plant response rating, Purple nutsedge (purple nutsedge; Rate 500 g/ha): 100
- Plant response rating, Johnsongrass (Johnson grass; [3]): 0
- Plant response rating, Johnsongrass (Johnson grass; [4]): 0
- Plant response rating, Johnsongrass (Johnson grass; [5]): 40
- Plant response rating, Johnsongrass (Johnson grass; [6]): 75
- Plant response rating, Johnsongrass (Johnson grass; Rate 250 g/ha): 95
- Plant response rating, Johnsongrass (Johnson grass; Rate 500 g/ha): 85

Compound: CCCn1c(=O)on(C(=O)N(c2ccc(Cl)cc2)C(C)C)c1=O [Compound 119]
- Plant response rating, Goosegrass (goosegrass; [3]): 30
- Plant response rating, Goosegrass (goosegrass; [4]): 85
- Plant response rating, Goosegrass (goosegrass; [5]): 98
- Plant response rating, Goosegrass (goosegrass; [6]): 100
- Plant response rating, Goosegrass (goosegrass; Rate 250 g/ha): 100
- Plant response rating, C. purslane (common pursiane; [7]): 0
- Plant response rating, C. purslane (common pursiane; [8]): 0
- Plant response rating, C. purslane (common pursiane; [9]): 0
- Plant response rating, C. purslane (common pursiane; [10]): 0
- Plant response rating, C. purslane (common pursiane; [11]): 0
- Plant response rating, Guineagrass (guineagrass; [3]): 65
- Plant response rating, Guineagrass (guineagrass; [4]): 75
- Plant response rating, Guineagrass (guineagrass; [5]): 85
- Plant response rating, Guineagrass (guineagrass; [6]): 98
- Plant response rating, Guineagrass (guineagrass; Rate 250 g/ha): 98
- Plant response rating, Green foxtail (Green foxtail; Rate 250 g/ha): 100
- Plant response rating, Surinam grass (surinam grass [2]; [3]): 0
- Plant response rating, Surinam grass (surinam grass [2]; [4]): 0
- Surinam grass plant response rating (surinam grass [2]; [5]): 50
- Surinam grass plant response rating (surinam grass [2]; [6]): 85
- Plant response rating, Surinam grass (surinam grass [2]; Rate 250 g/ha): 98
- Plant response rating, Dallisgrass (dallisgrass; [3]): 30
- Plant response rating, Dallisgrass (dallisgrass; [4]): 65
- Plant response rating, Dallisgrass (dallisgrass; [5]): 85
- Plant response rating, Dallisgrass (dallisgrass; [6]): 90
- Plant response rating, Dallisgrass (dallisgrass; Rate 250 g/ha): 98
- Plant response rating, Com. groundsel (common groundsel; [3]): 85
- Plant response rating, Com. groundsel (common groundsel; [4]): 98
- Plant response rating, Com. groundsel (common groundsel; [5]): 100
- Plant response rating, Com. groundsel (common groundsel; [6]): 100
- Plant response rating, Com. groundsel (common groundsel; Rate 250 g/ha): 100
- Plant response rating, Alexandergrass (Alexandergrass; [3]): 0
- Plant response rating, Alexandergrass (Alexandergrass; [4]): 50
- Plant response rating, Alexandergrass (Alexandergrass; [5]): 75
- Plant response rating, Alexandergrass (Alexandergrass; [6]): 98
- Plant response rating, Alexandergrass (Alexandergrass; Rate 250 g/ha): 100
- Plant response rating, Sandbur (sandbur; [3]): 0
- Plant response rating, Sandbur (sandbur; [4]): 0
- Sandbur plant response rating (sandbur; [5]): 65
- Sandbur plant response rating (sandbur; [6]): 98
- Plant response rating, Sandbur (sandbur; Rate 250 g/ha): 100
- Plant response rating, Tall Mallow (tall mallow; [3]): 0
- Plant response rating, Tall Mallow (tall mallow; [4]): 0
- Tall Mallow plant response rating (tall mallow; [5]): 0
- Tall Mallow plant response rating (tall mallow; [6]): 0
- Plant response rating, Tall Mallow (tall mallow; Rate 250 g/ha): 0
- Plant response rating, Large crabgrass (large crabgrass; [3]): 85
- Plant response rating, Large crabgrass (large crabgrass; [4]): 90
- Plant response rating, Large crabgrass (large crabgrass; [5]): 98
- Plant response rating, Large crabgrass (large crabgrass; [6]): 100
- Plant response rating, Large crabgrass (large crabgrass; Rate 250 g/ha): 100
- Plant response rating, C. ragweed (common ragweed; [3]): 0
- Plant response rating, C. ragweed (common ragweed; [4]): 0
- Plant response rating, C. ragweed (common ragweed; [5]): 0
- Plant response rating, C. ragweed (common ragweed; [6]): 0
- Plant response rating, C. ragweed (common ragweed; Rate 250 g/ha): 0
- Plant response rating, Purple nutsedge (purple nutsedge; [3]): 0
- Plant response rating, Purple nutsedge (purple nutsedge; [4]): 0
- Purple nutsedge plant response rating (purple nutsedge; [5]): 0
- Purple nutsedge plant response rating (purple nutsedge; [6]): 0
- Plant response rating, Purple nutsedge (purple nutsedge; Rate 250 g/ha): 0
- Plant response rating, Johnsongrass (Johnson grass; [3]): 0
- Plant response rating, Johnsongrass (Johnson grass; [4]): 0
- Plant response rating, Johnsongrass (Johnson grass; [5]): 65
- Plant response rating, Johnsongrass (Johnson grass; [6]): 75
- Plant response rating, Johnsongrass (Johnson grass; Rate 250 g/ha): 85
